According to paper PMC1968618, “Acetylsalicylic acid (ASA) protects the prostaglandin-cAMP-system of human hypernephroma cells against irradiation-induced alterations” (British Journal of Cancer, 1993):
Several values for one entry are separate records, joined by “and”; a condition that tells them apart may be missing. Equal values may be shown once.

What was measured:
[1] = system: PG biosynthesis of human hypernephroma cells; assay: Conversion of exogenously added 14C-AA to its metabolites (radiothinlayer chromatography); type: cell-based; settings: for 14C-AA conversion to 12-HETE, Table IV / 14C-AA conversion to PGD2, Table IV / 14C-AA conversion to PGE2, Table IV / 14C-AA conversion to PGF2alpha, Table IV / 14C-AA conversion to TXB2, Table IV / AA (%) remaining, Table IV: individual cell lines
[2] = system: human hypernephroma cells; assay: Cellular viability (phase-contrast microscopy and Trypan Blue exclusion); type: cell-based; settings: ASA incubation for 24 h
[3] = ASA-treated group (group 2), patients 1,3,4,6,8,9,11 in order
[4] = ASA-treated group irradiated (group 4), patients 3,4,6,9,11 in order

CC(=O)Oc1ccccc1C(=O)O [ASA, acetylsalicylic acid]
14C-AA conversion to 12-HETE, Table IV [1, 3]: 6.9% and 4.2% and 7.3% and 5.5% and 5.3% and 4.9% and 8.8% | 14C-AA conversion to PGD2, Table IV [1, 3]: 1.3% and 0.9% and 0.2% and 0.5% and 0.4% and 0.6% and 0.8% | 14C-AA conversion to PGE2, Table IV [1, 3]: 1.8% (2×) and 1.1% and 2.2% and 0.7% and 1.5% and 1.3% | 14C-AA conversion to PGF2alpha, Table IV [1, 3]: 1.7% and 0.7% and 0.8% and 0.2% and 0.3% (2×) and 0.5% | 14C-AA conversion to TXB2, Table IV [1, 3]: 1.2% and 0.8% and 1.7% and 1.3% (2×) and 2.3% and 1.5% | AA (%) remaining, Table IV [1, 3]: 66.5% and 78.2% and 72.9% and 78.5% (2×) and 82.8% and 81.0% | 14C-AA conversion to PGF2alpha ([1]; ASA-treated group (group 2), mean (control group 3.2)): 0.6% | 14C-AA conversion to 12-HETE ([1]; ASA-treated group (group 2), mean (control group 3.7)): 6.1% | 14C-AA conversion to TXB2 ([1]; ASA-treated group (group 2), mean (control group 8.0)): 1.4% | 14C-AA conversion to 12-HETE, Table IV [1, 4]: 4.9% and 5.1% (2×) and 4.8% (2×) | 14C-AA conversion to PGD2, Table IV [1, 4]: 0.3% and 0.9% and 0.8% and 0.5% and 0.4% | 14C-AA conversion to PGE2, Table IV [1, 4]: 0.8% and 1.6% and 1.9% and 1.1% and 1.8% | 14C-AA conversion to PGF2alpha, Table IV [1, 4]: 0.5% and 0.9% and 0.2% and 0.8% and 0.4% | 14C-AA conversion to TXB2, Table IV [1, 4]: 1.3% and 1.2% and 1.1% and 1.5% and 0.6% | AA (%) remaining, Table IV [1, 4]: 82.9% and 74.3% and 81.2% and 73.7% and 79.4% | 14C-AA conversion to PGF2alpha ([1]; ASA-treated group irradiated (group 4), mean (control irradiated 2.7)): 0.6% | 14C-AA conversion to PGD2 ([1]; ASA-treated group irradiated (group 4), mean (control irradiated 3.0)): 0.6% | 14C-AA conversion to 12-HETE ([1]; ASA-treated group irradiated (group 4), mean (control irradiated 4.1)): 4.9% | 14C-AA conversion to TXB2 ([1]; ASA-treated group irradiated (group 4), mean (control irradiated 7.4)): 1.1% | 14C-AA conversion to PGE2 ([1]; ASA-treated group irradiated (group 4), mean (control irradiated 9.0)): 1.4% | cellular viability [2]: unchanged
